Measured values as given in patent publication US8158106B2, “Particle immobilized coatings and uses thereof” (Surmodics, Inc., priority 2001, dated 2012).

Key:
[1] = Entrapment of microparticles disposed on pre-irradiated photopolymer matrix spots, presence after washes; type: physicochemical; conditions: 9.9 μm silica microparticles disposed on irradiated spots, compound 2.5 mg/ml
Excerpt: Different polymeric materials were used to immobilize microparticles on a substrate. First, different polymers were disposed and treated on a substrate to form matrices. This was followed by disposing the microparticles on the substrates which were immobilized via the matrices. Four different photoreactive polymers were used to immobilize 9.9 μm diameter silica microparticles on substrates. […] Pat. No. 5,714,360 to Swan et al., issued Feb., 3, 1998, commonly owned by the assignee of the present invention, the disclosure of which is incorporated herein in its entirety), a non-polymeric photoreactive compound, was evaluated. […] Each solution was printed with 25 gauge disposable needles (PrecisionGlide Needles, Becton Dickinson and Co., Franklin Lakes, N.J.) and an x-y programmable stage (CAMM-3, Roland Digital Group, Irvine, Calif.) onto glass microscope slides which had been functionalized with silanes, as in Example 1, and onto acrylic slides (Cadillac Plastics, Minneapolis, Minn.). This printing forms a pattern of approximately 300-400 μm diameter spots on the substrates. The patterned slides were irradiated for two minutes with ultraviolet light as detailed in Example 1. After irradiation, 500 μl of an aqueous solution of 2 mg/ml 9.9 μm diameter silica microparticles (S[…], Bangs Laboratories, Fisher, Ind.) was placed over the patterned area for one minute to allow the microparticles to associate and become entrapped in the polymer matrices. The slides were then rinsed with 0.1% v/v Tween-20 aqueous solution to remove any free microparticles. Following this, the array was washed to remove loosely bound microspheres. The array was washed three times with 1×PBS (pH 7.4) with 0.1% v/v Tween-20, and then rinsed with deionized water. […] After imaging, the arrays were incubated in a solution of 0.1M TRIS and 50 mM ethanolamine (T/E) wash buffer for 1 hour at 50° C., followed by two rinses with deionized water. The microarrays were then incubated in a solution of 4×SSC/0.1% SDS for two hours at 50° C. and rinsed in deionized water. This was the final step at which imaging was done to evaluate the respective polymers.

[2] = Printed slurries of photoreactive compound and microparticles, presence after washes; type: physicochemical; conditions: slurry of 2.5 mg/ml compound and 20 mg/ml 9.9 μm silica microspheres printed, then irradiated
Description: Slurries were prepared, each containing different polymers and microparticles. These slurries were then disposed on a substrate and treated to form matrices in which microparticles were immobilized. Different polymeric materials were used to immobilize microparticles on a substrate. Four different photoreactive polymers were used to immobilize 9.9 μm diameter silica microparticles on substrates: […] BBDQ (as described in Example 4) a non-polymeric photoreactive material was also used in this Example. […] Each mixture was printed with 25 gauge disposable needles (PrecisionGlide Needles, Becton Dickinson and Co., Franklin Lakes, N.J.) and an x-y programmable stage (CAMM-3, Roland Digital Group, Irvine, Calif.) onto glass microscope slides which had been functionalized with silanes, as detailed in Example 1 and onto acrylic slides (Cadillac Plastics, Minneapolis, Minn.). This printing forms a pattern of approximately 300-400 μm diameter spots on the substrates. The coated substrates were irradiated for two minutes with ultraviolet light as detailed in Example 1. The coated substrates were then imaged with a fluorescence microscope (Olympus BX 60, Tokyo, Japan), to ensure that patterning was successful. Following this, the coated substrate was washed to remove any loosely bound microspheres. The coated substrates were washed three times with 1×PBS (pH 7.4) with 0.1% v/v Tween-20, rinsed with deionized water. At this point, each was again imaged with the fluorescence microscope to determine microsphere loss in the various photoreactive polymer matrices. After imaging, the coated substrates were incubated in a solution of T/E wash buffer for 1 hour at 50° C., followed by two rinses with deionized water. The coated substrates were then incubated in a solution of 4×SSC/0.1% SDS for two hours at 50° C. and rinsed in deionized water.

With `C[N+](C)(CC[N+](C)(C)Cc1ccc(C(=O)c2ccccc2)cc1)Cc1ccc(C(=O)c2ccccc2)cc1.[Br-].[Br-]` [BBDQ, ethylene(4-benzoylbenzyldimethylammonium)dibromide] the “Presence of microparticles after PBS-Tween wash” value (from here on “Presence … after PBS-Tween wash”) ([1]; Acrylic substrate) was “Some loss”, the “Presence of microparticles after high salt wash (4X SSC)” value (shortened to “Presence of microparticles … (4X SSC)”) ([1]; Acrylic substrate) was “Complete loss” and the “Presence of microparticles before washes” value ([1]; Acrylic substrate) was “Present”. For the same compound, the “Presence … after PBS-Tween wash” value ([1]; Glass substrate) was “Some loss”, the “Presence of microparticles … (4X SSC)” value ([1]; Glass substrate) was “Complete loss” and the “Presence of microparticles before washes” value ([1]; Glass substrate) was “Present”. The “Presence … after PBS-Tween wash” value ([2]; Acrylic substrate) was “No loss”, the “Presence of microparticles … (4X SSC)” value ([2]; Acrylic substrate) was “Complete loss” and the “Presence of microparticles before washes” value ([2]; Acrylic substrate) was “Present”. The “Presence … after PBS-Tween wash” value ([2]; Glass substrate) was “No loss”, the “Presence of microparticles … (4X SSC)” value ([2]; Glass substrate) was “Complete loss” and the “Presence of microparticles before washes” value ([2]; Glass substrate) was “Present”.
